Laboratory results taken from PMC3478282, “Probing the Putative Active Site of YjdL: An Unusual Proton-Coupled Oligopeptide Transporter from E. coli” (PLoS ONE, 2012).
Residue numbers refer to the chain shown, from its start. Residues, ends and D or L forms follow the SMILES beside them.

Experiments:
Type in all cases: cell-based, E. coli
[1] = molecular target: T1, WT-YjdL (Escherichia coli, UniProt P39276); experiment: cell-based; details: for IC50: IC50 (inhibition of β-Ala-Lys(AMCA) uptake)
T1 construct: expressed in transfected cells; host or cells: E. coli BL21(DE3)pLysS, pTTQ18-yjdL, IPTG-induced
T1 sequence (P39276 1-485): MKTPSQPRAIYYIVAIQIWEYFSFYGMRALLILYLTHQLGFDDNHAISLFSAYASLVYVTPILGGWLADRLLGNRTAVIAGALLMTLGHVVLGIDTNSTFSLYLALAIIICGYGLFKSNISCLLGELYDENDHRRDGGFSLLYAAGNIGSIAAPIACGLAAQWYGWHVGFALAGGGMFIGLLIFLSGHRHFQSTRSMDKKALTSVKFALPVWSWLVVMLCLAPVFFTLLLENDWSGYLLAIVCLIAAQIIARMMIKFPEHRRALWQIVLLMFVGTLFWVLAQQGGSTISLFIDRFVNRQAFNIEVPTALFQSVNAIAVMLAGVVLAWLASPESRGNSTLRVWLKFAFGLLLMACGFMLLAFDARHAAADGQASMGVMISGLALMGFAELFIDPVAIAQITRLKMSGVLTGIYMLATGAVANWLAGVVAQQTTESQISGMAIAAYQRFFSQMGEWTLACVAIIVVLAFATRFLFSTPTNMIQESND
Procedure: Plasmids were transformed into E. coli BL21(DE3)pLysS cells by heat shock and transformants were selected on agar plates containing 100 µg/mL ampicillin and 34 µg/mL chloramphenicol. Single transformants were inoculated into 2 mL LB-media with antibiotics as above and grown overnight. The cultures were diluted 1∶50 in 5 mL LB-media with antibiotics as above, and at an OD600 of 0.5–0.8 protein expression was induced by the addition of 1 mM isopropyl β-D-1-thiogalactopyranoside (IPTG). […]
(§1) Uptake assays were performed as previously described, [20]. In a final assay volume of 100 µL; 0.2 mM β-Ala-Lys-N-7-amino-4-methylcoumarin-3-acetic acid (β-Ala-Lys(AMCA), Biotrend) (10 µL) and various concentrations of ligands (purchased from Bachem or Sigma-Aldrich) or uptake buffer (50 µL) were incubated with bacterial cell suspension (OD600 = 10, 40 µL) at 37°C. After 5 min, the uptake was stopped by addition of 500 µL ice-cold uptake buffer followed by immediate centrifugation and washing twice in ice-cold uptake buffer. Finally the cell pellet was resuspended in 100 µL uptake buffer, and the uptake was quantified by fluorescence measurements (excitation at 340 nm and emission at 460 nm) on a Safire 2 fluorimeter. Non-specific uptake was measured as described above on IPTG-induced E. coli BL21(DE3)pLysS cells harboring the empty pTTQ18 vector. All uptake assay experiments were reproduced at least three times independently and data analyses were performed using GraphPad Prism ver. 5.

[2] = molecular target: T2, YjdL Tyr58Phe (Escherichia coli, UniProt P39276, Y58F); experiment: β-Ala-Lys(AMCA) uptake and inhibition assay, YjdL Tyr58Phe; details: for IC50: 0.5 mM β-Ala-Lys(AMCA), 15 min incubation, pH 6.5, ±SEM, n≥3, read-out: IC50 (inhibition of β-Ala-Lys(AMCA) uptake), Tyr58Phe b
T2 construct: expressed in transfected cells; host or cells: E. coli BL21(DE3)pLysS, pTTQ18-yjdL mutant (QuikChange)
T2 sequence (P39276 1-485 Y58F): T1 sequence (P39276 1-485) with Y58F
Procedure: (§2) Plasmids were transformed into E. coli BL21(DE3)pLysS cells by heat shock and transformants were selected on agar plates containing 100 µg/mL ampicillin and 34 µg/mL chloramphenicol. Single transformants were inoculated into 2 mL LB-media with antibiotics as above and grown overnight. The cultures were diluted 1∶50 in 5 mL LB-media with antibiotics as above, and at an OD600 of 0.5–0.8 protein expression was induced by the addition of 1 mM isopropyl β-D-1-thiogalactopyranoside (IPTG). The cells were harvested after three hours of induction by centrifugation and resuspended in uptake buffer (50 mM MES pH 6.5, 140 mM NaCl, 5.4 mM KCl, 1.8 mM CaCl2, 0.8 mM MgSO4, and 5 mM glucose).
as §1

[3] = molecular target: T3, YjdL Trp278Phe (Escherichia coli, UniProt P39276, W278F); experiment: β-Ala-Lys(AMCA) uptake and inhibition assay, YjdL Trp278Phe; details: 0.2 mM β-Ala-Lys(AMCA), 5 min incubation, pH 6.5; ±SEM, n≥3
T3 construct: host or cells: E. coli BL21(DE3)pLysS
T3 sequence (P39276 1-485 W278F): T1 sequence (P39276 1-485) with W278F
Procedure: as §2, §1

Compound | Kt ([1]; WT YjdL, data not shown) [mM] | β-Ala-Lys(AMCA) uptake level, YjdL Tyr58Phe ([2]; 0.2 mM, 5 min, pH 6.5 (Figure 3)) [%] | IC50 at pH 6.5 (50 mM MES) relative to previous studies at pH 7.4 (25 mM Tris/HEPES), WT-YjdL [1] | IC50 ([1]; WT-YjdL a) [µM] | IC50 ([1]; WT-YjdL b) [µM] | IC50 [2] [µM] | IC50 [3] [µM]
β-Ala-Lys-N-7-amino-4-methylcoumarin-3-acetic acid [β-Ala-Lys(AMCA)] | ~5 | 7 |  |  |  |  | 
C[C@H](N)C(=O)N[C@@H](C)C(=O)O [Ala-Ala] (H-Ala-Ala-OH) |  |  | eight | 2800 ± 600 | 2200 ± 100 | 28100 ± 5000 | 9900 ± 1000
C[C@H](N)C(=O)N[C@@H](CCCCN)C(=O)O [Ala-Lys] (H-Ala-Lys-OH) |  |  |  | 280 ± 10 | 890 ± 160 | > 50000 | 380
C[C@H](NC(=O)[C@@H](N)Cc1ccc(O)cc1)C(=O)O [Tyr-Ala] |  |  | same | 2400 ± 400 | 2400 ± 200 | 24100 ± 2800 | 2800 ± 400
